{"source": "patent US20050143328A1", "about": "“COMPOSITION AND TREATMENT FOR ENVELOPE VIRUS INFECTIONS” (priority 2003, published 2005)", "tested_on": "herpes simplex I", "experiment": "Topical treatment of herpes simplex I / cold sores with a neomycin B composition", "type": "in vivo", "settings": "between 3.5 and 5 mg/g neomycin B combined with pramoxine hydrochloride in petroleum jelly", "from_the_text": "Example 2: This embodiment of the invention is a compound similar to that disclosed in Example 1, except that it is specifically targeted to the treatment of herpes simplex I and the prevention of physiological manifestations of herpes simplex I (e.g., cold sores). […] However, for longer-term use or storage, preservatives like methylparaben are utilized to avoid contamination, and the ingredients preferably comprise an emulsion or suspension to distribute evenly the physiologically active ingredients."}
{"molecule": "NC[C@@H]1O[C@H](O[C@H]2[C@@H](O)[C@H](O[C@@H]3[C@@H](O)[C@H](N)C[C@H](N)[C@H]3O[C@H]3O[C@H](CN)[C@@H](O)[C@H](O)[C@H]3N)O[C@@H]2CO)[C@H](N)[C@@H](O)[C@@H]1O", "note": "[neomycin B]", "values": [{"measurement": "outcome of the experiment (treatment of herpes simplex I and prevention of its manifestations, e.g. cold sores)", "result": "ultimately effective"}]}
